In brackets after ≈: the same amount, converted by molar mass.
Legend:
[1] = Cmax in Hanover Wistar rat at 3 mg/kg, po; format: ADME, organism-based; parameters: dose 3 mg/kg, route oral; conditions: in vivo
[2] = Oral bioavailability in Hanover Wistar rat at 3 mg/kg; format: ADME, organism-based; conditions: in vivo
[3] = Permeability across apical to basolateral side of human Caco2 cells at 10 uM after 21 days; format: ADME, cell-based; conditions: Caco-2, read-out: permeability
[4] = Clearance in Hanover Wistar rat at 3 mg/kg, iv; format: ADME, organism-based; parameters: dose 3 mg/kg, route intravenous; conditions: in vivo
[5] = Permeability across basolateral to apical side in human Caco2 cells at 10 uM after 21 days; format: ADME, cell-based; conditions: Caco-2, read-out: permeability
[6] = Intrinsic clearance in rat liver microsomes assessed per mg of protein; format: ADME, Microsome
[7] = Intrinsic clearance in human liver microsomes assessed per mg of protein; format: ADME, Microsome
[8] = Aqueous solubility of the compound in phosphate buffer at pH 6.5 by reverse phase HPLC analysis; format: physicochemical
[9] = Volume of distribution at steady state in Hanover Wistar rat at 3 mg/kg, iv; format: ADME, organism-based; parameters: dose 3 mg/kg, route intravenous; conditions: in vivo, read-out: Vdss
[10] = Half life in Hanover Wistar rat at 3 mg/kg, iv; format: ADME, organism-based; parameters: dose 3 mg/kg, route intravenous; conditions: in vivo
[11] = AUC in Hanover Wistar rat at 3 mg/kg, po; format: ADME, organism-based; parameters: dose 3 mg/kg, route oral; conditions: plasma

For `C[C@H](CS(C)(=O)=O)Nc1n[nH]c2nc(Oc3ccc(F)cc3F)ncc12`, the Cmax [1] was 446 ng/mL, the bioavailability [2] was 105% and the Papp A→B at 10 µM [3] was 3 ×10⁻⁶ cm/s. For the same compound, the clearance [4] was 43.6 mL/min/kg, the Papp B→A at 10 µM [5] was 18.9 ×10⁻⁶ cm/s and the microsomal CLint [6] was 6.2 µL/min/mg. The microsomal CLint [7] was 0.74 µL/min/mg, the solubility [8] was 57.2 µg/mL (≈ 149 µM) and the Vd [9] was 8.1 L/kg. The half-life [10] was 3.4 h and the AUC [11] was 1220 ng·h/mL.

— ChEMBL document CHEMBL1777778 (Bioorg Med Chem Lett, 2011)
